Source: PMC9856155, “Protein Conformational Dynamics Underlie Selective Recognition of Thermophilic over Mesophilic Enzyme I by a Substrate Analogue” (Biomolecules, 2023)
Like-named read-outs stand apart in the source and are kept apart here.

Biological target: T1, Enzyme I C-terminal domain (tEIC) (Caldanaerobacter subterraneus, UniProt Q8R7R4)
T1 construct: gene PtsA; EIC, C-terminal domain (residues 261–575)
Assay: 1H-15N TROSY NMR chemical shift perturbation titration
Format: binding
Excerpt: 1H-15N TROSY NMR chemical shift perturbation titration on Enzyme I C-terminal domain (tEIC) | both cPEP and SEP induce significant CSPs on the spectra of tEIC localized in the vicinity of the PEP binding site | SEP is particularly interesting as it binds to the thermophilic enzyme with a KD similar to the physiological substrate

T1 sequence (Q8R7R4 250-573): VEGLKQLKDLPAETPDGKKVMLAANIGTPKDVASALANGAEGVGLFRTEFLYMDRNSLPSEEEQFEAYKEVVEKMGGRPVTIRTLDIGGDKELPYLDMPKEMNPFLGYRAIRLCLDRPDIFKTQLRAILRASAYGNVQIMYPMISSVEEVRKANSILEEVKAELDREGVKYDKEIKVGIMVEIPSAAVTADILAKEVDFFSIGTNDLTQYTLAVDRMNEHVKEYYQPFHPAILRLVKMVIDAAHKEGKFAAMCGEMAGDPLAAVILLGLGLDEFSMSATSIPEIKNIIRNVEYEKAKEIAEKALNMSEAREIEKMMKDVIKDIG

Kd (read-out: Kd) | SMILES | Kd
600 µM | C=C(OS(=O)(=O)O)C(=O)O [SEP, sulfoenolpyruvate] | 
 | C=C(CP(=O)(O)O)C(=O)O [cPEP, allylicphosphonate] | 2800 µM
